Data: patent publication US20260265274A1, “Cyclic Boronic Esters and Their Uses” (Principia Biopharma Inc., priority 2022, published 2026)

Key:
Type in all cases: physicochemical
[1] = Open dish stability study at 40° C./75% RH in open glass vials; conditions: for % Peak Area by UPLC, 2 weeks / % Peak Area by UPLC, Initial: 40° C./75% RH open; for Open dish stability, result in words: 40° C./75% RH, open glass vials
[2] = Stability in SGF (Simulated Gastric Fluid), ester content by UPLC; conditions: SGF pH 1.2, 10 mg/mL in ACN diluted to 0.5 mg/mL
Description: (§1) The diluted solution was then analyzed for ester content by UPLC.
(§2) The same set of experiments were performed for the pinacol and pinanediol esters of Boronic Acid 1 except that additional ACN was added when diluting into SIF in order to maintain the compounds in solution (final ACN concentration of 20%-30% in diluted solutions in SIF).

[3] = Stability in SIF (Simulated Intestinal Fluid), ester content by UPLC; conditions: SIF pH 6.8, 10 mg/mL in ACN diluted to 0.5 mg/mL, pinacol and pinanediol esters with 20%-30% final ACN
Description: as §1, §2

| % Peak Area by UPLC, 2 weeks [1] | % Peak Area by UPLC, Initial [1] | Open dish stability, result in words [1] | Structure (SMILES) | Conversion of ester to Boronic Acid 1 in SGF [2] | Conversion of ester to Boronic Acid 1 in SIF [3] |
| --- | --- | --- | --- | --- | --- |
| 85.9% | 95.8% | significantly degraded after two weeks | C[C@@H]1CN(C(C)(C)/C=C(\C#N)C(=O)N2CCCC[C@@H](OC(=O)N[C@@H](Cc3ccccc3)B(O)O)C2)CCO1 [Boronic Acid 1, ((R)-1-(((((R)-1-((E)-2-cyano-4-methyl-4-((R)-2-methylmorpholino)pent-2-enoyl)azepan-3-yl)oxy)carbonyl)amino)-2-phenylethyl)boronic acid] |  |  |
| 70.9% | 95.5% | significantly degraded after two weeks | C[C@@H]1CN(C(C)(C)C=C(C#N)C(=O)N2CCCC[C@@H](OC(=O)N[C@@H](Cc3ccccc3)B3OC(C)(C)C(C)(C)O3)C2)CCO1 [Pinacol ester of Boronic Acid 1, (R)-1-(2-cyano-4-methyl-4-((R)-2-methylmorpholino)pent-2-enoyl)azepan-3-yl ((R)-2-phenyl-1-(4,4,5,5-tetramethyl-1,3,2-dioxaborolan-2-yl)ethyl)carbamate] | completely converted to Boronic Acid 1 immediately | completely converted to Boronic Acid 1 immediately |
| 90.6% | 93.5% | significantly degraded after two weeks | C[C@@H]1CN(C(C)(C)/C=C(\C#N)C(=O)N2CCCC[C@@H](OC(=O)N[C@@H](Cc3ccccc3)B3O[C@@H]4C[C@@H]5C[C@@H](C5(C)C)[C@]4(C)O3)C2)CCO1 [Pinanediol ester of Boronic Acid 1] | only partially converted to Boronic Acid 1 | only partially converted to Boronic Acid 1 |
